This is an account of results in ChEMBL document CHEMBL4364331, “Identification of CB1 Receptor Allosteric Sites Using Force-Biased MMC Simulated Annealing and Validation by Structure-Activity Relationship Studies” (ACS Med Chem Lett, 2019).

Assay [1] concerns the target Cannabinoid receptor 1 (Mus musculus, UniProt P47746). As to the kind of experiment: Positive allosteric modulatory activity at mouse CB1R expressed in CHO-K1 cells assessed as CP55940-induced beta-arrestin2 recruitment by pathhunter beta-arrestin assay. It is filed as cell-based.
Assay [2] has as its target T1, Cannabinoid receptor 1 (Homo sapiens, UniProt P21554). The assay is described as follows: Positive allosteric modulatory activity at human CB1R expressed in CHO-K1 cells assessed as CP55940-induced cAMP level by hit-hunter cAMP assay. It is filed as functional, cell-based. For orientation: Cyclic AMP is a second messenger, typically raised through Gs and lowered through Gi signalling.

Assay [3] has as its target Cannabinoid receptor 1 (Mus musculus) (UniProt P47746). The assay is described as follows: Positive allosteric modulatory activity at mouse CB1R expressed in CHO-K1 cells assessed as CP55940-induced beta-arrestin2 recruitment by pathhunter beta-arrestin assay relative to control. In kind it is cell-based.
For assay [4], the target named is T1, Cannabinoid receptor 1. The assay is described as follows: Positive allosteric modulatory activity at human CB1R expressed in CHO-K1 cells assessed as CP55940-induced cAMP level by hit-hunter cAMP assay relative to control. In kind it is functional, cell-based.

Each structure is given as a SMILES string. Bounds are passed on as bounds.

T1 sequence (P21554 whole entry): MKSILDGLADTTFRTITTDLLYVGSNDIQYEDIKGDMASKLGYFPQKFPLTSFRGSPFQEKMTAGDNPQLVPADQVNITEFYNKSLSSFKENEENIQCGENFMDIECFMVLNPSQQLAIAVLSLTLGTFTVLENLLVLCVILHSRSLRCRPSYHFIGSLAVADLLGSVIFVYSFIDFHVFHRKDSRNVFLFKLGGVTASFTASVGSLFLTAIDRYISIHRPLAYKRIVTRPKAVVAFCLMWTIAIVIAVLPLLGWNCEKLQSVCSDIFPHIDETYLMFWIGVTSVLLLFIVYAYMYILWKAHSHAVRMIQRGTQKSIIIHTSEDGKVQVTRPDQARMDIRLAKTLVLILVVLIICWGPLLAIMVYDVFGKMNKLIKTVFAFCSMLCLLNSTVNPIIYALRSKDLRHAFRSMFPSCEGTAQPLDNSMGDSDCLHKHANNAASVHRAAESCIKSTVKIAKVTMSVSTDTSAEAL
Chain of Cannabinoid receptor 1 (Mus musculus, UniProt P47746) (P47746 whole entry): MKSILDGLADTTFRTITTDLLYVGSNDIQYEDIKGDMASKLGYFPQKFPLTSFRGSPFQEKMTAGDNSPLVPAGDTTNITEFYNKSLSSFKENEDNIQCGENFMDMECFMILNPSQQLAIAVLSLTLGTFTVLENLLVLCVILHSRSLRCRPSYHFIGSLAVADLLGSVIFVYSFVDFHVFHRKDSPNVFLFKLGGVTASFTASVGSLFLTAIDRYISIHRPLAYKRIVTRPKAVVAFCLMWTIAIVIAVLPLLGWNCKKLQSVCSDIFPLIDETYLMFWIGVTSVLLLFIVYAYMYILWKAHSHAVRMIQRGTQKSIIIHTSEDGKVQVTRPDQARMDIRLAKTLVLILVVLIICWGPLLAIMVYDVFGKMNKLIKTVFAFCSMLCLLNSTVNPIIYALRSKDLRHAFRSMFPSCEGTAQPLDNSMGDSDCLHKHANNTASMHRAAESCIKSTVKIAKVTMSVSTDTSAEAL
Chain of Cannabinoid receptor 1 (Mus musculus) (P47746 whole entry): as above

In the case of `O=[N+]([O-])CC(c1ccccc1)c1cc[nH]c1-c1ccccc1` (stereo unspecified), the EC50 in assay [1] and in assay [2] was greater than 10 µM in each case. For the same molecule, the Emax in assay [3] and in assay [4] was 0% throughout.

`O=[N+]([O-])CC(c1ccccc1)c1c(C2CCCCC2)[nH]c2ccccc12` (stereo unspecified): the figures for the EC50 in assay [1] and in assay [2] were greater than 10 µM and 0.992 µM, respectively. Moreover, the figures for the maximum response (Emax) in assay [3] and in assay [4] were 0% and 121%, respectively.

For `Cn1c(-c2ccccc2)c(C(C[N+](=O)[O-])c2ccccc2)c2ccccc21` (stereo unspecified), the half-maximal effective concentration (EC50) in assay [1] and in assay [2] was greater than 10 µM each time. Also, the Emax in assay [3] and in assay [4] was 0% in each case.

On to `O=[N+]([O-])CC(c1ccccc1)c1cn(-c2ccccc2)c2ccccc12` (stereo unspecified), for which the concentration for a half-maximal effect (EC50) in assay [1] and in assay [2] was greater than 10 µM each time. Further, the Emax in assay [3] and in assay [4] was 0% throughout.

`NCC(c1ccccc1)c1c(-c2ccccc2)[nH]c2ccccc12` (stereo unspecified): the EC50 in assay [1] and in assay [2] was greater than 10 µM throughout. Further, the Emax in assay [3] and in assay [4] was 12% throughout.

As for `O=[N+]([O-])CC(c1ccccc1)c1c[nH]c2ccccc12` (stereo unspecified), the EC50 in assay [1] and in assay [2] was greater than 10 µM in each case. In addition, the Emax in assay [3] and in assay [4] was 0% in each case.

For `O=[N+]([O-])CC(c1ccccc1)c1c(-c2ccccc2)[nH]c2ccccc12` (stereo unspecified), the concentration for a half-maximal effect (EC50) in assay [1] amounted to 0.94 µM. The Emax in assay [3] stood at 46%; in assay [4], 110%.

As to `O=[N+]([O-])CCc1c(-c2ccccc2)[nH]c2ccccc12`, the EC50 in assay [1] is greater than 10 µM; in assay [2], 5.53 µM. Also, the results for the Emax in assay [3] and in assay [4] were 0% and 85%, respectively.

As usually defined, the EC50 is the concentration at which the effect is half-maximal. A word on the Emax: it is the maximal effect, on the per cent scale that the assay sets.
